In patent US6709688B1, “Pigment” (Norsk Hydro ASA, priority 1999, dated 2004):
Where two headings read alike, the source gives them in different places.

Key:
[1] = test system: crude enzyme mixture from salmon intestine; assay: Hydrolysis with crude enzyme mixture from salmon intestine (Example 4); type: in vitro ADME; settings: after 48 hours hydrolysis; for Diol (%): diol = free astaxanthin
Experimental: (§1) Tris buffer (0.25 M) solution was prepared by dissolving Tris (4.54 g; 37.5 mmol) in 150 ml of distilled water. The pH of the buffer solution was adjusted to 8.0 by adding 2 M hydrochloric acid. All the hydrolysis was done at room temperature so no special effort was necessary.
(§2) The astaxanthin diester was weighed accurately (˜40 mg, […]) along with 2.5 g of chremophor EL emulsifier (from BASF) into 100 ml Erlenmeyer flask. The solution was stirred vigorously for 20 minutes (until homogeneous) and then 20 ml of the Tris buffer was added and stirred for additional 10 minutes. The solution was suction filtered and the red filtrate was poured into 25 ml volumetric flask and diluted to the mark with buffer. Concentration of all the solution was determined spectrophotometically (492 nm) to be about 1 mg/ml, except for diacetate which was obtained in a lower concentration. All the solutions were stored in refrigerator wrapped in aluminium paper.
(§3) Fresh salmon and rainbow trout, that had been fed in the last 12 hours, were obtained from local fish farms. At the laboratory the fresh fish was cut open and the crude enzyme mixture extracted as follows: From the digestion line there were a lot of narrow tubes surrounded by fat tissue. Each of them was cut off and extracted by hand into a cooled container. The viscous solution (−50 ml) was diluted to 100 ml with 0.25 M Tris buffer and stirred for 30 minutes in an ice bath. Next step was centrifugation at 11.000 rpm for 20 minutes at 4° C. (RC5C from Du Pont). The water layer was extracted by pipette to another centrifuge glasses and the centrifugation repeated at 18.000 rpm for 30 minutes at 4° C. The water layer was transferred to Erlenmeyer flask and quickly frozen by liquid nitrogen. Before starting the reaction the mixture was thawed and purified by ultracentrifuge at 27.000 rpm for 45 minutes at 4° C. (157.000 g at top). The lipase preparation was obtained as a clear yellow solution.
(§4) Into a 10 ml round bottom flask was added 2 ml of stock solution and 3 ml of crude enzyme mixture from fish intestine. The flask was filled with nitrogen before closing, wrapped in aluminium paper and stirred for 48 hours. When finished, all the water was removed under reduced pressure (0.01 Torr) and redissolved in CH2Cl2. The solution was filtered through cotton wool plug and stored under nitrogen in a closed container. Analytical TLC was used to monitor the progress of the reaction with 5% acetone in CH2Cl2 as eluent (Diol(Rf=0.0-0.1), Monoest. (Rf=0.3-0.5), Diest. (Rf=0.8-0.9)). To determine the degree of hydrolysis all the samples were injected into analytical HPLC. [Eluent: 30% acetone in n-hexane. Column: Nucleosil 50-5 (2×30 cm) column. Flow rate: 0.15 ml/min. Detector: 470 nm (Diol Rf=0.4-0.5, Monoest. Rf=0.7, Diest. Rf=0.9-1.0)].
A similar experiment as in Example 2 was performed with enzymes from salmon intestinal fluid.
The diesters that were hydrolysed were prepared by esterification of astaxanthin with the following carboxylic acids:
Acetic acid, C16:0 (palmitic acid), fatty acids from a fish oil rich in omega-3 fatty acids (approx. 18% EPA and 12% DHA, called K30 in the tables below), a concentrate of omega-3 fatty acids (approx. 30% EPA and 20% DHA, called K55 in the tables below), the same concentrate of EPA and DHA as used in example 2 (approx. 50% EPA and 35% DHA, called ACD in the tables below), purified EPA (more than 95% EPA, called EPA in the tables) and purified DHA (more than 90% DHA, called DHA in the tables).

[2] = test system: crude enzyme mixture from rainbow trout intestine; assay: Hydrolysis with crude enzyme mixture from rainbow trout intestine (Example 5); type: in vitro ADME, rainbow trout (Oncorhynchus mykiss); settings: after 48 hours hydrolysis; for Diol (%): diol = free astaxanthin
Experimental: as §1, §2, §3, §4
A similar example as Example 2b was performed. However, for this Example crude enzyme preparation from rainbow trout (Oncorhynchus mykiss) was used. […] For the fish oil 37% was unreacted, while for ACD only 14% remained unreacted. As for salmon, we observe that EPA reacts faster than DHA (17 and 21% unreacted), however for rainbow trout we observe that an omega-3 concentrate like the ACD diester gives higher degree of hydrolysis than the diester of purified EPA.

[3] = test system: commercial lipase, Candida rugosa (Lipase AY, 30); assay: Hydrolysis of astaxanthin diesters by commercial lipase
Experimental: We synthesised several other diesters in order to study whether these hydrolysed faster than the dipalmitate.
Diesters of astaxanthin were prepared with the following carboxylic acids: elaidic acid (trans-C18:1), palmitic acid (C16:0), decanoic acid (C10:0) and a concentrate of omega-3 fatty acids comprising approximately 50% eicosapentaenoic acid (EPA) (all cis C20:5 n3) and approximately 35% docosahexaenoic acid (DHA) (all cis C22:6 n3). The different diesters were firstly hydrolysed by a commercial lipase, Candida rugosa (Lipase AY, 30).

[4] = test system: enzymes from salmon intestinal fluid; assay: Hydrolysis of astaxanthin diesters with enzymes from salmon intestinal fluid (Example 2); type: in vitro ADME, Atlantic salmon; settings: after 45 hours at room temperature
Experimental: To verify the hydrolysis data for these astaxanthin diesters obtained by using the commercial lipase, another similar experiment was performed by using enzyme isolated from the intestine of Atlantic salmon.
A similar experiment as Example 1 was performed with enzymes from salmon intestinal fluid. The intestinal fluid from salmon was collected as described from cod (Lie, Ø. et al., Comp. Biochem. Physiol., 80B (3), (1985), pp. 447-450). The following results were obtained after 45 hours at room temperature: […]

[5] = cited from earlier work

Diesters (%) [1] [%] | Monoesters (%) [1] [%] | Diol (%) [1] [%] | Diesters (%) [2] [%] | Monoesters (%) [2] [%] | Diol (%) [2] [%] | Free astaxanthin (%) ([3]; after 42 hours at room temperature, commercial lipase Candida rugosa) | Free astaxanthin (%) [4] [%] | Free astaxanthin (%) [3] [%] | Diol (%) ([1]; listed as diester of astaxanthin with palmitic acid (16:0)) | Free astaxanthin (%) ([4]; listed as didecanoate) | Compound | pigmentation compared with the diol ([5]; literature) | absorption compared with free astaxanthin ([5]; rainbow trout, sea trout and Atlantic salmon) | Free astaxanthin (%) ([4]; listed as C10:0)
– | – | – | – | – | – | 73 | 1 | – | – | – | CCCCCCCCC=CCCCCCCCC(=O)OC1CC(C)(C)C(C=CC(C)=CC=CC(C)=CC=CC=C(C)C=CC=C(C)C=CC2=C(C)C(=O)C(OC(=O)CCCCCCCC=CCCCCCCCC)CC2(C)C)=C(C)C1=O (stereo not shown) [18:1] | – | – | –
– | – | – | – | – | – | – | 6 | – | – | 6 | CCCCCCCCCC(=O)O[C@H]1CC(C)(C)C(/C=C/C(C)=C/C=C/C(C)=C/C=C/C=C(C)/C=C/C=C(C)/C=C/C2=C(C)C(=O)[C@@H](OC(=O)CCCCCCCCC)CC2(C)C)=C(C)C1=O [10:0] | – | – | hydrolysed much faster than the dipalmitate

The next lines start with the compound.

Compound | Diesters (%) [1] [%] | Monoesters (%) [1] [%] | Diol (%) [1] [%] | Diesters (%) [2] [%] | Monoesters (%) [2] [%] | Diol (%) [2] [%] | Free astaxanthin (%) ([3]; after 42 hours at room temperature, commercial lipase Candida rugosa) | Free astaxanthin (%) [4] [%] | Free astaxanthin (%) [3] [%] | Diol (%) ([1]; listed as diester of astaxanthin with palmitic acid (16:0)) | Free astaxanthin (%) ([4]; listed as didecanoate) | pigmentation compared with the diol ([5]; literature) | absorption compared with free astaxanthin ([5]; rainbow trout, sea trout and Atlantic salmon) | Free astaxanthin (%) ([4]; listed as C10:0)
CC/C=C\C/C=C\C/C=C\C/C=C\C/C=C\C/C=C\CCC(=O)O[C@H]1CC(C)(C)C(/C=C/C(C)=C/C=C/C(C)=C/C=C/C=C(C)/C=C/C=C(C)/C=C/C2=C(C)C(=O)[C@@H](OC(=O)CC/C=C\C/C=C\C/C=C\C/C=C\C/C=C\C/C=C\CC)CC2(C)C)=C(C)C1=O [DHA] | 44 | 53 | 3 | 21 | 55 | 24 | – | – | – | – | – | – | – | –
CC(=O)O [Acetate] | 13 | 80 | 7 | 3 | 83 | 14 | – | – | – | – | – | – | – | –
CCCCCCCCCCCCCCCC(=O)O[C@H]1CC(C)(C)C(/C=C/C(C)=C/C=C/C(C)=C/C=C/C=C(C)/C=C/C=C(C)/C=C/C2=C(C)C(=O)[C@@H](OC(=O)CCCCCCCCCCCCCCC)CC2(C)C)=C(C)C1=O [16:0, astaxanthin dipalmitate, reference compound] | 81 | 19 | 0 | 71 | 18 | 11 | – | 1 | 40 | no free astaxanthin | – | less pigmentation than the diol | absorbed less easy than free astaxanthin | –
CC/C=C\C/C=C\C/C=C\C/C=C\C/C=C\CCCC(=O)O[C@H]1CC(C)(C)C(/C=C/C(C)=C/C=C/C(C)=C/C=C/C=C(C)/C=C/C=C(C)/C=C/C2=C(C)C(=O)[C@@H](OC(=O)CCC/C=C\C/C=C\C/C=C\C/C=C\C/C=C\CC)CC2(C)C)=C(C)C1=O [EPA] | 27 | 67 | 6 | 17 | 58 | 25 | – | – | – | – | – | – | – | –
